Measurements as given in PubChem BioAssay (NCI).
Several values for one entry are separate records, joined by “and”; a condition that tells them apart may be missing. Equal values may be shown once.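 Assay format: 96-well plates, 48-hour exposure. Here, GI50 denotes the concentration required for 50% inhibition of growth. TGI denotes the concentration required for complete inhibition of growth.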

Experiments:
Assay in all cases: inhibition of tumour cell growth, NCI panel, 48 h
MALME-3M melanoma = test system: MALME-3M melanoma
SF-539 CNS = test system: SF-539 CNS
EKVX NSCLC = test system: EKVX NSCLC
NCI-H226 lung = test system: NCI-H226 lung
SN12C renal = test system: SN12C renal
HOP-92 NSCLC = test system: HOP-92 NSCLC
HCT-15 colon = test system: HCT-15 colon
SK-MEL-5 melanoma = test system: SK-MEL-5 melanoma
A498 renal = test system: A498 renal
UACC-62 melanoma = test system: UACC-62 melanoma

Structure (SMILES) | TGI (MALME-3M melanoma) [µM] | TGI (SF-539 CNS) | TGI (EKVX NSCLC) [µM] | TGI (NCI-H226 lung) | TGI (SN12C renal) [µM] | TGI (HOP-92 NSCLC) | TGI (HCT-15 colon) [µM] | TGI (SK-MEL-5 melanoma) [µM] | TGI (A498 renal) | TGI (UACC-62 melanoma) [µM] | GI50 (SF-539 CNS) | GI50 (NCI-H226 lung) [µM] | GI50 (SN12C renal) [µM] | GI50 (HOP-92 NSCLC) [µM] | GI50 (HCT-15 colon) [µM] | GI50 (SK-MEL-5 melanoma) [µM] | GI50 (UACC-62 melanoma) [µM] | GI50 (MALME-3M melanoma) [µM] | GI50 (A498 renal) [µM] | GI50 (EKVX NSCLC) [µM]
CC1OC(OC2C(OC3CCC4(C)C(CCC5(C)C4CC=C4C6CC(C)(C)CCC6(C(=O)O)CCC45C)C3(C)CO)OCC(O)C2O)C(O)C(O)C1O (configuration not stated) | 37.5 | 32.8 µM | 40 | 49.6 µM | 42 | 27.3 µM | 42.1 | 36.3 | 31.1 µM | 26.1 | – | – | – | – | – | – | – | – | – | –
COc1ccc(C2C(C)C(=O)C(C)C(c3ccc(OC)cc3)N2N=O)cc1 (configuration not stated) | > 700 | 46.8 µM and 341 µM and 222 µM | > 1000 | > 75 µM and 457 µM | > 1000 | > 80.9 µM and 190 µM and 149 µM | > 1000 | > 750 | > 40.9 µM and 424 µM | > 750 | 18 µM and 41.3 µM | > 88.4 | > 750 | > 47.9 | > 750 | > 750 | > 750 | – | – | –
OCc1ccc(N2CCc3ccccc3C2)cc1Cl | 56.6 | > 100 µM | – | 0.0768 µM | > 100 | 9.28 µM | 41.6 | – | 0.0355 µM | 0.144 | 41.9 µM | 0.0134 | 11.4 | 0.0448 | 3.35 | – | < 0.01 | 20.3 | < 0.015 | –
CC(C)(C)c1c2c(c(C(C)(C)C)c3c1OCN(Cc1ccccc1)C3)OCN(Cc1ccccc1)C2 | 43.1 | 31 µM | 41.5 | – | 34.9 | 28.1 µM | 33.3 | 21 | 20.6 µM | 38.7 | – | – | – | – | – | – | – | – | – | –
CCN1Cc2nc3sc(C)c(C)c3c(=O)n2C=C1C | 73.5 | 34.4 µM | > 100 | 21.9 µM | 62.1 | 46.4 µM | 19 | 51.8 | > 100 µM | 24.7 | 12.9 µM | 8.17 | 13.8 | 6.2 | 3.5 | 5.87 | 5.83 | 16.4 | 20.3 | 21.8
O=C(Nc1ccc(/C=C/c2ccc(NC(=O)c3cc(S(=O)(=O)O)c4cccnc4c3O)cc2S(=O)(=O)O)c(S(=O)(=O)O)c1)c1cc(S(=O)(=O)O)c2cccnc2c1O | > 62.6 | > 54.9 µM | > 80.5 | 47.5 µM | > 59.2 | 89.4 µM | > 71.5 | > 64.3 | > 64.4 µM | 37.6 | 11.3 µM | 6.29 | 4.36 | 28.5 | > 41.6 | 50.2 | 2.5 | 34.4 | 46.6 | > 50.9
COc1ccc(/C=C2\C=C(c3ccccc3)N(CCc3ccccc3)C2=O)cc1OC | 61.9 | 23 µM | 54 | 30.2 µM | 21.8 | 8.17 µM | > 100 | 94.5 | 5.32 µM | 40.9 | 6.68 µM | 4.6 | 4.88 | 2.54 | 11.1 | 9.29 | 6.01 | 10.2 | 2.25 | 10.4
COc1cc(C(=O)Nc2cc(OC)c3ccn(C)c3c2)cc2c1C[C@]1(C)CC[C@@H](O)C(C)(C)[C@H]1O2 | > 100 | 2.22 µM | > 100 | > 100 µM | > 100 | 6.03 µM | > 100 | 1.72 | 1.89 µM | 1.31 | 0.0632 µM | 7.69 | 3.93 | 0.593 | 1.05 | 0.384 | 0.257 | 2.74 | 0.149 | 1.87
Cc1ccc(S(=O)OCC23CC4CC(CC(C4)C2)C3)cc1 (configuration not stated) | > 100 | > 100 µM | > 100 | > 100 µM | > 100 | > 100 µM | > 100 | > 100 | > 100 µM | > 100 | – | – | – | – | – | – | – | – | – | –
C[C@@H](Oc1ccc(C(=O)NS(=O)(=O)C(C)(C)C)cc1C(F)(F)F)c1ccc(Oc2ccccc2)cn1 | 26.7 | 5.62 µM | 20.3 | 8.5 µM | 18.6 | 11.7 µM | 10.5 | 4.75 | 6.74 µM | 19.8 | 2.1 µM | 2.76 | 4.58 | 1.78 | 2.53 | 1.68 | 3.09 | 10.8 | 1.91 | 4.35
O=C(COC(=O)c1cccc2c(=O)c3ccccc3[nH]c12)Nc1ccc(C(=O)O)cc1 | > 100 | > 100 µM | > 100 | > 10 µM | > 100 | > 100 µM | – | > 100 | > 100 µM | > 100 | – | – | – | – | – | – | – | – | – | –
COc1ccc(Nc2cc(C)nc(NCCCNc3ccnc4cc(Cl)ccc34)n2)cc1 | 3.94 | 2.64 µM | – | 5.17 µM | 10.8 | 3.3 µM | 2.49 | 2.76 | 3.39 µM | 3.44 | 1.24 µM | 2.08 | 2.74 | 1.24 | 1.03 | 1.4 | 1.81 | 2.07 | 1.49 | –
NCCNCc1c2ccccc2c(CNCCN)c2ccccc12 | 29.8 | 29.5 µM | 50.1 | – | 58.9 | 45.9 µM | > 100 | 90.3 | 75.3 µM | 53.5 | – | – | – | – | – | – | – | – | – | –
Cc1cc(N(CCCl)CCCl)ccc1C=Nc1ccc2ccccc2c1 | > 100 | > 100 µM | – | 1.82 µM | > 100 | 61.1 µM | > 100 | 27.6 | 1.13 µM | 28.3 | 4.97 µM | 0.297 | 12.4 | 11.8 | 27.6 | 6.8 | 2.45 | 50.3 | 0.226 | –
C=C(C(=C)P(=S)(c1ccccc1)c1ccccc1)P(=S)(c1ccccc1)c1ccccc1 | > 100 | > 100 µM | > 100 | – | > 100 | > 100 µM | > 100 | > 100 | > 100 µM | > 100 | – | – | – | – | – | – | – | – | – | –
CN(C)c1ccc(/C=C/C2=[N+](C)c3ccccc3C2(C)C)cc1 | 13.1 | 14 µM | 20 | 26.1 µM | 13.4 | 9.03 µM | 18.6 | – | 74.9 µM | 19.2 | 1.65 µM | 1.57 | 0.354 | 1.8 | 2.66 | – | 1.36 | 0.662 | 8.86 | 0.508
CC(=O)Nc1ccc(COC(O)CN2CCCCC2)cc1[N+](=O)[O-] (configuration not stated) | > 100 | > 100 µM | – | > 100 µM | > 100 | > 100 µM | > 100 | > 100 | > 100 µM | > 100 | – | – | – | – | – | – | – | – | – | –
CC1(C)[C@@H](OC(=O)CCC(=O)O)CC[C@]2(C)[C@H]3C(=O)C=C4[C@@H]5C[C@@](C)(C(=O)O)CC[C@]5(C)CC[C@@]4(C)[C@]3(C)CC[C@@H]12 | 128 | 76.7 µM | 84.8 | – | 105 | 87.2 µM | 78.7 | 86.8 | 68 µM | 60.6 | 53.1 µM | – | 51.9 | 58.6 | 51.1 | 56 | 48.1 | 90.8 | 49.2 | 52.9
c1ccc2cc(C[n+]3ccn(CCCCCCCCCCn4cc[n+](Cc5ccc6ccccc6c5)c4)c3)ccc2c1 | 1.48 | 6.54 µM | 9.07 | 13.6 µM | – | 2.96 µM | > 100 | – | 2.77 µM | 3.08 | 1.19 µM | 0.918 | – | 0.396 | 3.76 | – | 0.646 | 0.313 | 0.0129 | 0.442
O=C(/C(=C\c1ccc(Cl)cc1)c1ccccc1)c1ccccc1 | > 100 | > 100 µM | > 100 | > 100 µM | > 100 | > 100 µM | > 100 | – | > 100 µM | > 100 | – | – | – | – | – | – | – | – | – | –
CC(=O)c1cc(C(=O)c2ccc3c(c2)Sc2ccccc2N3)c2cc(C)ccn12 | > 100 | 0.826 µM | > 100 | > 100 µM | > 100 | > 100 µM | > 100 | 5.56 | > 100 µM | – | 0.0581 µM | 3.91 | 0.479 | > 100 | 0.0704 | 0.122 | – | 0.0429 | 0.0431 | 0.0873
Cc1cc(C(C)(C)C)cc(CNC2CCCCC2)c1O | 27.8 | 33 µM | 31.4 | – | 29.5 | 29.3 µM | 31.4 | 30.9 | 30.3 µM | 29.6 | – | – | – | – | – | – | – | – | – | –
